Measured values published in PubChem BioAssay (NCI).
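Each compound was tested at five concentrations against cells in 96-well plates for 48 hours. GI50 marks 50% less growth. TGI: total growth inhibition.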

Legend:
Test in all cases: DTP human tumour cell line panel, 48 h
[1] = test system: UO-31 renal
[2] = test system: HCC-2998 colon
[3] = test system: IGROV1 ovarian
[4] = test system: HT29 colon
[5] = test system: K-562 leukemia
[6] = test system: SNB-19 CNS
[7] = test system: RXF 393 renal
[8] = test system: CCRF-CEM leukemia
[9] = test system: MALME-3M melanoma
[10] = test system: 786-0 renal

Structure (SMILES)	TGI [1] [µM]	TGI [2] [µM]	TGI [3] [µM]	TGI [4] [µM]	TGI [5] [µM]	TGI [6] [µM]	TGI [7] [µM]	TGI [8] [µM]	TGI [9] [µM]	TGI [10] [µM]	GI50 [1] [µM]	GI50 [2] [µM]	GI50 [3] [µM]	GI50 [4] [µM]	GI50 [5] [µM]	GI50 [6] [µM]	GI50 [7] [µM]	GI50 [8] [µM]	GI50 [9] [µM]	GI50 [10] [µM]
CCOC(=O)CCn1[nH]c(=O)c(Cl)c(Cl)c1=O	> 100	> 100	> 100	> 100	> 100	> 100	> 100	> 100	> 100	> 100										
COc1cc(NS(=O)(=O)c2ccc(-c3cnc(C4CC4)o3)cc2)ccc1F	24.1	12.7	24.6	12.5	> 100	24.5	6.52	> 100	33.9	21.4	0.581	1.09	0.439	0.268	0.082	0.441	0.276	0.326	0.56	0.694
FC(F)(F)c1nc(-c2ccccc2)oc1Sc1nnc(Sc2oc(-c3ccccc3)nc2C(F)(F)F)s1	> 100	> 100	49.3	> 100	> 64.5	> 100	49.3	34.8	34.4	74										
COc1cc2c(c(OC)c1OC)-c1c(cc3c(c1OC)OCO3)C1OC2C(C)C1C (stereo not drawn) (tested in a mixture with another compound)	> 100	> 100	> 100	> 100	> 100	> 100	> 100	> 100	> 100	> 100										
Cc1nc2ccccc2c(=O)n1-c1ccccc1F	> 100	> 100	> 100	> 100	> 100	> 100	> 100	> 100	> 100	> 100										
CN(C)C(c1ccccc1)C(O)c1ccccc1 (stereo not drawn)	> 100	> 100	> 100	> 100	> 100	> 100	> 100	> 100	> 100	> 100										
COc1cc2c3c(n(CCNCCCNCCn4c5c(c6cc(OC)c(OC)cc6c4=O)C(=O)c4ccccc4-5)c(=O)c2cc1OC)-c1ccccc1C3=O	> 100	0.978	9.57		1.48	4.26	12.1	1.63	6.19	6.17	> 65.1	0.0685	0.0523	0.0448	0.103	0.162	1.14	< 0.0174	0.884	0.186
COC(=O)[C@H](Cc1c[nH]c2ccccc12)NC(=O)[C@@H](OC)[C@@H]1Cc2cc3cc(OC4CC(OC5CC(O)C(O)C(C)O5)C(O)C(C)O4)c(C)c(O)c3c(O)c2C(=O)[C@H]1OC1CC(OC2CC(OC3CC(C)(O)C(O)C(C)O3)C(O)C(C)O2)C(O)C(C)O1 (stereo partly drawn)	1.18	0.0382	> 7.79		> 16.5	> 16.5	0.0243	> 6.28	0.0184	> 16.5	0.215	0.00659	0.00743	0.00611	0.0118	0.00777	0.00833	0.0064	0.0039	0.0158
N#CCc1ccc(C(C#N)/C(CCCC(=O)Nc2cccc([N+](=O)[O-])c2)=N/NC(N)=S)cc1 (stereo not drawn)	> 100	> 100	> 100	> 100	> 100	> 100	> 100	> 100	> 100	> 100										
c1cc2c(ncc3cscc32)s1	> 100	> 100	> 31.6	> 100	> 100	> 100	> 100	> 100	> 100	> 100										
Cc1ccc(-c2cc(=O)c3cc(C)c(C)c(C(=O)O)c3o2)cc1C	> 100	> 100	> 100	> 100	> 100	> 100	> 100	> 100	> 100	> 100										
CCOC(=O)c1c(C)nc2c(c1N)/C(=C/c1ccc(OC)cc1)C(=O)N2Cc1ccc(F)cc1	0.301	0.762	0.733	0.587	1.01	1.87	0.329	0.514	0.44	0.389	0.132	0.255	0.235	0.171	0.207	0.532	0.14	0.109	0.185	0.165
Cc1[nH]c2ccccc2c1C1Cc2ccccc2N1C(=O)/C(Cl)=C/c1ccccc1 (stereo not drawn)	> 100	> 100	> 100	> 100	> 100	> 100	89	> 100	> 100	> 100										
COC1=CC2(C=CC1=O)c1cc(OC)c(OC)cc1CCN2C(=O)c1ccccc1 (stereo not drawn)	> 100	> 100	> 100	> 100	> 100	> 100	> 100	> 100	> 100	> 100										
Cc1nc(-c2ccccc2)c(-c2ccccc2)s1	54.1	25.3	95.3	41.7	57.2	> 100	49.8	40.3	46.8	50.8										
O=C(/C(=C/c1cccc([N+](=O)[O-])c1)c1ccccc1)c1ccccc1	5.85	6.27	27.8	8.83	15.7	19.7	9.06	27.8	5.81	18.3	2.21	2.54	3.38	3.24	3.27	5.15	3.39	2.17	2.32	4.8
Nc1ncn(C2CC(O)C(CO)O2)c(=O)n1 (stereo not drawn)	> 375	> 375	372	> 375	> 332	> 349	350	> 261	> 375	> 256										
CCO/N=C(/N)c1ncn(Cc2ccccc2)c1NCC(OCC)OCC	> 100	> 100	> 100	> 100	> 100	> 100	99.5	> 100	> 100	> 100										
O=C(/C=C\n1cnc(-c2cc(C(F)(F)F)cc(C(F)(F)F)c2)n1)NNc1cnccn1	12.8	1.93	14.8	22.4	> 38.3	13.4	0.225	> 100	10.5	13.9	0.12	0.112	0.223	0.131	0.0594	0.142	0.028	0.106	0.135	0.0781
N#Cc1cccc(NC(=O)c2cc(-c3ccc(F)cc3F)ccc2O)c1	6.99	10.1	68.6	37.3	> 100	18.4	7.63	47.7	5.48	19.4	2.26	2.97	2.98	4.73	1.98	2.63	2.69	3.07	1.44	2.69
CC(=O)N1C/C(=C\c2ccc(N(C)C)cc2)C(=O)/C(=C/c2ccc(N(C)C)cc2)C1	> 100	> 100	> 100	> 100	> 100	> 100	> 100	> 100	> 100	> 100										
CNc1nc(N)c(N=O)c(Nc2ccc(Br)cc2)n1	> 100	> 100	> 100	> 100	> 100	> 100	> 100	> 100	> 100	> 100										
N#CCC(=O)NC1C2CC3CC(C2)CC1C3 (stereo not drawn)	> 100	31.9	59.1	33.1	> 100	32.5	30.2	> 100	42.6	35.8										
Cc1ccc(C(=O)Nc2ccc(CN3CCN(C)CC3)c(C(F)(F)F)c2)cc1C#Cc1cnc(N)c2ccccc12	0.886	1.56	0.814	1.41	0.61	1.47	1.06	3.04	0.951	1.08	0.241	0.738	0.103	0.367	0.005	0.769	0.285	0.622	0.248	0.435
CS(=O)(=O)c1cc(=O)c2ccccc2s1	29.4	30.5	41.2	16.2	3	36.5	9.05	3.93	3.5	13										
